We go through 6 compounds from patent publication US12421278B2, “Immunomodulators” (Bristol-Myers Squibb Company, priority 2020, dated 2025).

Starred links: 1 amine or outer side, 2 acyl side, 3 side chain; linkers in the order of their positions; H or OH if unused. Positions of bridges follow the written chain, without caps; N, C: chain ends. Non-standard residues stand in square brackets, D forms with d. Residues, ends and D or L forms follow the SMILES beside them. Trp(1-CH2CO2Me) = COC(=O)Cn1cc(C[C@H](N)C(=O)O)c2ccccc21; Trp(1-CH2COOH) = N[C@@H](Cc1cn(CC(=O)O)c2ccccc12)C(=O)O; X4 = O=C(O)c1cc(NC(=S)[*:1])cc(NC(=S)[*:2])c1; X2 = O=C([C@H](CCNCC=[*:3])N[*:1])[*:2]; X1 = O=C([C@H](CNCC=[*:3])N[*:1])[*:2]; X3 = O=C(NCCCCCCNC(=O)[*:2])[*:1]; Hyp = O=C(O)[C@@H]1C[C@@H](O)CN1; Oxalyl = O=C(C(=O)[*:2])[*:1]; NMeNle = CCCC[C@H](NC)C(=O)O; NEtAla = CCN[C@@H](C)C(=O)O; NMeA = CN[C@@H](C)C(=O)O; Dab = NCC[C@H](N)C(=O)O; Dap = NC[C@H](N)C(=O)O

For this assay, the target named is T1, PD-1/PD-L1 (Homo sapiens, UniProt Q9NZQ7).
T1 construct: TVMV protease site (C); made in house; host or cells: HEK293T cells
T1 sequence (Q9NZQ7 18-239): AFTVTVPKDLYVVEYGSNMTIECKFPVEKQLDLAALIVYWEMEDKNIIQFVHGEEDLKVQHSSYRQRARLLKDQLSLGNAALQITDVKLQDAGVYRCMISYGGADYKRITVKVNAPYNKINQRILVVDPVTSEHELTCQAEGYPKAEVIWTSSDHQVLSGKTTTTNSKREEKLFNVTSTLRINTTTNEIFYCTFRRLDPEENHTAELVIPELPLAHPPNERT
The assay is described as follows: PD-1/PD-L1 Homogenous Time-Resolved Fluorescence (HTRF) binding assay. Conditions: PD-L1-His 10 nM final, PD-1-Ig 20 nM final. From the text: The ability of the compounds of formula (I) to bind to PD-L1 was investigated using a PD-1/PD-L1 Homogenous Time-Resolved Fluorescence (HTRF) binding assay.
Homogenous Time-Resolved Fluorescence (HTRF) Binding Assay
The interaction of PD-1 and PD-L1 can be assessed using soluble, purified preparations of the extracellular domains of the two proteins. The PD-1 and PD-L1 protein extracellular domains were expressed as fusion proteins with detection tags, for PD-1, the tag was the Fc portion of Immunoglobulin (PD-1-Ig) and for PD-L1 it was the 6 histidine motif (PD-L1-His). All binding studies were performed in an HTRF assay buffer consisting of dPBS supplemented with 0.1% […] bovine serum albumin and 0.05% (v/v) Tween-20. For the h/PD-L1-His binding assay, inhibitors were pre-incubated with PD-L1-His (10 nM final) for 15 m in 4 μl of assay buffer, followed by addition of PD-1-Ig (20 nM final) in 1 μl of assay buffer and further incubation for 15 m. HTRF detection was achieved using europium crypate-labeled anti-Ig (1 nM final) and allophycocyanin (APC) labeled anti-His (20 nM final). Antibodies were diluted in HTRF detection buffer and 5 μl was dispensed on top of the binding reaction. The reaction mixture was allowed to equilibrate for 30 minutes and the resulting signal (665 nm/620 nm ratio) was obtained using an EnVision fluorometer. Additional binding assays were established between the human proteins PD-1-Ig/PD-L2-His (20 & 5 nM, respectively) and CD80-His/PD-L1-Ig (100 & 10 nM, respectively).
Recombinant Proteins: Human PD-1 (25-167) with a C-terminal human Fc domain of immunoglobulin G (Ig) epitope tag [hPD-1 (25-167)-3S-IG] and human PD-L1 (18-239) with a C-terminal His epitope tag [hPD-L1(18-239)-TVMV-His] were expressed in HEK293T cells and purified sequentially by ProteinA affinity chromatography and size exclusion chromatography. Human PD-L2-His and CD80-His was obtained through commercial sources.
Table 1 lists the IC50 values for representative examples of this disclosure measured in the PD-1/PD-L1 Homogenous Time-Resolved Fluorescence (HTRF) binding assay.
For orientation: TR-FRET usually uses a lanthanide donor and a delayed reading to cut background.
For orientation: IC50 means the midpoint of a concentration-inhibition curve. Regarding `CCCC[C@H]1C(=O)N(C)[C@@H](CCCC)C(=O)N[C@@H](CC(C)C)C(=O)N[C@H](C(=O)NCC(N)=O)CSCC(=O)N[C@@H](Cc2ccc(O)cc2)C(=O)N(C)[C@@H](C)C(=O)N[C@@H](CC(N)=O)C(=O)N2CCC[C@H]2C(=O)N[C@H]2CNC(=O)NCCCCCCNC(=O)NCC[C@H](NC(=O)[C@H](Cc3c[nH]c4ccccc34)NC(=O)[C@@H]3C[C@@H](O)CN3C(=O)[C@H](CC(C)C)NC2=O)C(=O)N[C@@H](Cc2cn(CC(=O)O)c3ccccc23)C(=O)N1C` [Example 1001] ({CH2CO}-Y[NMeA]NP[Dap]L[Hyp]W[Dab][Trp(1-CH2COOH)][NMeNle][NMeNle]LCG-NH2; linker 5-9 via X3; thioether N-14), the IC50 was 0.004 µM.

With `CCCC[C@H]1C(=O)N(C)[C@@H](CCCC)C(=O)N[C@@H](CC(C)C)C(=O)N[C@H](C(=O)NCC(N)=O)CSCC(=O)N[C@@H](Cc2ccc(O)cc2)C(=O)N(C)[C@H]2CN3CC[C@H](NC(=O)[C@H](Cc4c[nH]c5ccccc45)NC(=O)[C@@H]4C[C@@H](O)CN4C(=O)[C@H](CC(C)C)NC(=O)[C@H](CNc4c3c(=O)c4=O)NC(=O)[C@@H]3CCCN3C(=O)[C@H](CC(N)=O)NC2=O)C(=O)N[C@@H](Cc2cn(CC(=O)O)c3ccccc23)C(=O)N1C` [Example 1002], the IC50 is 0.21 µM.

On to `CCCC[C@H]1C(=O)N(C)[C@@H](CCCC)C(=O)N[C@@H](CC(C)C)C(=O)N[C@H](C(=O)NCC(N)=O)CSCC(=O)N[C@@H](Cc2ccc(O)cc2)C(=O)N(C)[C@@H](C)C(=O)N[C@@H](CC(N)=O)C(=O)N2CCC[C@H]2C(=O)N[C@H]2CNC(=O)C(=O)NCC[C@H](NC(=O)[C@H](Cc3c[nH]c4ccccc34)NC(=O)[C@@H]3C[C@@H](O)CN3C(=O)[C@H](CC(C)C)NC2=O)C(=O)N[C@@H](Cc2cn(CC(=O)OC)c3ccccc23)C(=O)N1C` [Example 1003] ({CH2CO}-Y[NMeA]NP[Dap]L[Hyp]W[Dab][Trp(1-CH2CO2Me)][NMeNle][NMeNle]LCG-NH2; linker 5-9 via Oxalyl; thioether N-14), for which the IC50 was 0.12 µM.

`CCCC[C@H]1C(=O)N(C)[C@@H](CCCC)C(=O)N[C@@H](CC(C)C)C(=O)N[C@H](C(=O)NCC(N)=O)CSCC(=O)N[C@@H](Cc2ccc(O)cc2)C(=O)N(C)[C@@H](C)C(=O)N[C@@H](CC(N)=O)C(=O)N2CCC[C@H]2C(=O)N[C@H]2CNCC(O)COCC(O)CNCC[C@H](NC(=O)[C@H](Cc3c[nH]c4ccccc34)NC(=O)[C@@H]3C[C@@H](O)CN3C(=O)[C@H](CC(C)C)NC2=O)C(=O)N[C@@H](Cc2cn(CC(=O)O)c3ccccc23)C(=O)N1C` (stereo partly drawn) [Example 1004] gave an IC50 of 0.011 µM.

For the compound `CCCC[C@H]1C(=O)N(C)[C@@H](CCCC)C(=O)N[C@@H](CC(C)C)C(=O)N[C@H](C(=O)NCC(N)=O)CSCC(=O)N[C@@H](Cc2ccc(O)cc2)C(=O)N(C)[C@@H](C)C(=O)N[C@@H](CC(N)=O)C(=O)N(CC)[C@@H](C)C(=O)N[C@H]2CNC/C=C\CNCC[C@H](NC(=O)[C@H](Cc3c[nH]c4ccccc34)NC(=O)[C@@H]3C[C@@H](O)CN3C(=O)[C@H](CC(C)C)NC2=O)C(=O)N[C@@H](Cc2cn(CC(=O)O)c3ccccc23)C(=O)N1C` [Example 1005] ({CH2CO}-Y[NMeA]N[NEtAla][X1]L[Hyp]W[X2][Trp(1-CH2COOH)][NMeNle][NMeNle]LCG-NH2; staple (Z) 5-9; thioether N-14), the IC50 turned out to be 0.0083 µM.

Compound `CCCC[C@H]1C(=O)N(C)[C@@H](CCCC)C(=O)N[C@@H](CC(C)C)C(=O)N[C@H](C(=O)NCC(N)=O)CSCC(=O)N[C@@H](Cc2ccc(O)cc2)C(=O)N(C)[C@@H](C)C(=O)N[C@@H](CC(N)=O)C(=O)N2CCC[C@H]2C(=O)N[C@H]2CNC(=S)Nc3cc(cc(C(=O)O)c3)NC(=S)NCC[C@H](NC(=O)[C@H](Cc3c[nH]c4ccccc34)NC(=O)[C@@H]3C[C@@H](O)CN3C(=O)[C@H](CC(C)C)NC2=O)C(=O)N[C@@H](Cc2cn(CC(=O)O)c3ccccc23)C(=O)N1C` [Example 1007] ({CH2CO}-Y[NMeA]NP[Dap]L[Hyp]W[Dab][Trp(1-CH2COOH)][NMeNle][NMeNle]LCG-NH2; linker 5-9 via X4; thioether N-14) returned a concentration for half-maximal inhibition (IC50) of 0.078 µM.
